{"source": "patent US20250090514A1", "about": "“METHOD OF TREATING CANCER” (Laekna Limited, priority 2019, published 2025)", "key": {"[1]": {"assay": "Body weight and tolerability in the Mini-PDX study", "type": "in vivo", "description": "During the study, the care and use of animals were conducted in accordance with the regulations of the Association for Assessment and Accreditation of Laboratory Animal Care (AAALAC). After Mini-PDX device inoculation, the animals were checked daily for morbidity and mortality. At the time of routine monitoring, the animals were checked for any effects of treatments on normal behavior such as mobility, visual estimation of food and water consumption, body weight gain/loss, eye/hair matting and any other abnormal effect.\nThe body weight of mice was measured every day, and relative change of bodyweight was calculated for each mouse according to the following formula: RCBW(%)=(BWi−BW0)/BW0×100, BWi is the body weight after treatment on a given day, BW0 is the bodyweight on the first day of treatment."}, "aldosterone synthesis": {"tested_on": "aldosterone synthesis", "assay": "Example C: aldosterone level and hyperaldosteronism", "type": "in vivo, human", "excerpt": "Hyperaldosteronism is a disorder with several serious clinical symptoms including hypertension, hypokalemia, fatigue, headache, muscle weakness and numbness."}, "[2]": {"tested_on": "metastatic castration-resistant prostate cancer (mCRPC) patients", "conditions": "cited from earlier work"}}, "note": "Like-named read-outs stand apart in the source and are kept apart here."}
{"smiles": "Cn1ncc(Cl)c1-c1cc(C(=O)N[C@H](CN)Cc2cccc(F)c2)sc1Cl", "note": "[afuresertib, N-{(1S)-2-amino-1-[(3-fluorophenyl)methyl]ethyl}-5-chloro-4-(4-chloro-1-methyl-1H-pyrazol-5-yl)-2-thiophenecarboxamide]", "values": [{"measurement": "tolerability in the animals", "setting": "[1]; afuresertib 75 mg/kg, CFG920 300 mg/kg", "value": "tolerated well"}, {"measurement": "Average RCBW (%)/Day 6", "setting": "[1]; relative change of body weight from day 0, afuresertib 75 mg/kg QD, CFG920 300 mg/kg BID", "value": "−8.73", "unit": "%"}]}
{"smiles": "Cc1ccncc1N1CCN(c2ccnc(Cl)c2)C1=O", "note": "[CFG920, 1-(2-chloro-pyridin-4-yl)-3-(4-methyl-pyridin-3-yl)-imidazolidin-2-one]", "values": [{"measurement": "aldosterone level vs baseline", "setting": "aldosterone synthesis; baseline to Day 1 of Cycle 3, except Day 1 of Cycle 2 (similar to baseline), combination therapy", "value": "lower than the baseline level"}, {"measurement": "clinical symptoms of hyperaldosteronism", "setting": "aldosterone synthesis; during treatment with the combination therapy", "value": "did not cause any clinical symptoms of hyperaldosteronism"}, {"measurement": "unconfirmed rate of ≥50% PSA decline from baseline", "setting": "[2]; chemotherapy-naive mCRPC patients (32 of 124)", "value": 26, "unit": "%"}, {"measurement": "unconfirmed rate of ≥50% PSA decline from baseline", "setting": "[2]; mCRPC patients with previous chemotherapy (16 of 57)", "value": 28, "unit": "%"}]}
